Test results from PMC9013686, “Inter-individual variation in chlorpyrifos toxicokinetics characterized by physiologically based kinetic (PBK) and Monte Carlo simulation comparing human liver microsome and Supersome™ cytochromes P450 (CYP)-specific kinetic data as model input” (Archives of Toxicology, 2022).
Several values for one entry are separate records, joined by “and”; a condition that tells them apart may be missing. Equal entries are not always repeated. Marks after values point to notes of the source that are not given here.

How the values were obtained:
PON1 in plasma = assay: PON1-catalyzed detoxification of CPO to TCPy in individual human plasma (pathway 4); assay type: in vitro ADME; details: for CE / Scaled CE / Vmax / Vmax (app) / Scaled Vmax: CPO to TCPy; for Scaled Vmax: Eq 7
Procedure: After 1 min preincubation in a shaking 37 °C water bath, 1 µl of individual HP was added into the incubation system. Control incubations were performed by replacing plasma with the same amount of 50 mM Tris–HCl (pH 7.4). The total volume of the incubation mixtures was 200 µl. The incubation lasted for 1.5 min at 37 °C and was terminated by addition of 200 µl ice cold ACN and subsquently put on ice. Samples were subsequently centrifuged at 16,000 g (4 ℃) for 5 min and analyzed by UPLC-PDA. […]
In pathway 4, the in vivo VmaxHP (µmol/h) was extrapolated from its corresponding mean of the apparent VmaxHP(app) (nmol/min/ml plasma) of 25 individuals HP using Eq. 7:7 VmaxHP=VmaxHP(app)×60×1000×VB×0.55/1000,

[1] = test system: paraoxonase1 (PON1) in liver; details: Pathway 3 (CPO to TCPy in liver); pooled HLMs; ref Zhao et al. ([2019]); cited from earlier work

CCOP(=O)(OCC)Oc1nc(Cl)c(Cl)cc1Cl [CPO, chlorpyrifos-oxon]
difference between the highest and the lowest CE (PON1 in plasma; CPO detoxification in plasma of 25 individuals): around 2.6 fold
CE (PON1 in plasma; plasma individual 1 (64)): 4.1 ml/min/ml plasma
Scaled CE (PON1 in plasma; plasma individual 1 (64)): 750.1 L/h
Vmax (PON1 in plasma; plasma individual 1 (64)): 1596 nmol/min/ml plasma
Vmax (app) (PON1 in plasma; plasma individual 1 (64)): 21.78 nmol/min/mg plasma protein
Scaled Vmax (PON1 in plasma; plasma individual 1 (64)): 291247 µmol/h
CE (PON1 in plasma; plasma individual 2 (65)): 4.0 ml/min/ml plasma
Scaled CE (PON1 in plasma; plasma individual 2 (65)): 724.7 L/h
Vmax (PON1 in plasma; plasma individual 2 (65)): 1233 nmol/min/ml plasma
Vmax (app) (PON1 in plasma; plasma individual 2 (65)): 17.32 nmol/min/mg plasma protein
Scaled Vmax (PON1 in plasma; plasma individual 2 (65)): 224952 µmol/h
CE (PON1 in plasma; plasma individual 3 (56)): 6.4 ml/min/ml plasma
Scaled CE (PON1 in plasma; plasma individual 3 (56)): 1172.4 L/h
Vmax (PON1 in plasma; plasma individual 3 (56)): 2439 nmol/min/ml plasma
Vmax (app) (PON1 in plasma; plasma individual 3 (56)): 32.15 nmol/min/mg plasma protein
Scaled Vmax (PON1 in plasma; plasma individual 3 (56)): 445176 µmol/h
CE (PON1 in plasma; plasma individual 4 (52)): 5.0 ml/min/ml plasma
Scaled CE (PON1 in plasma; plasma individual 4 (52)): 915.9 L/h
Vmax (PON1 in plasma; plasma individual 4 (52)): 1591 nmol/min/ml plasma
Vmax (app) (PON1 in plasma; plasma individual 4 (52)): 22.39 nmol/min/mg plasma protein
Scaled Vmax (PON1 in plasma; plasma individual 4 (52)): 290427 µmol/h
CE (PON1 in plasma; plasma individual 5 (51)): 5.2 ml/min/ml plasma
Scaled CE (PON1 in plasma; plasma individual 5 (51)): 939.9 L/h
Vmax (PON1 in plasma; plasma individual 5 (51)): 3284 nmol/min/ml plasma
Vmax (app) (PON1 in plasma; plasma individual 5 (51)): 45.36 nmol/min/mg plasma protein
Scaled Vmax (PON1 in plasma; plasma individual 5 (51)): 599306 µmol/h
CE (PON1 in plasma; plasma individual 6 (57)): 5.7 ml/min/ml plasma
Scaled CE (PON1 in plasma; plasma individual 6 (57)): 1047.5 L/h
Vmax (PON1 in plasma; plasma individual 6 (57)): 1878 nmol/min/ml plasma
Vmax (app) (PON1 in plasma; plasma individual 6 (57)): 23.22 nmol/min/mg plasma protein
Scaled Vmax (PON1 in plasma; plasma individual 6 (57)): 342626 µmol/h
CE (PON1 in plasma; plasma individual 7): 7.9 ml/min/ml plasma
Scaled CE (PON1 in plasma; plasma individual 7): 1441.5 L/h
Vmax (PON1 in plasma; plasma individual 7): 1203 nmol/min/ml plasma
Vmax (app) (PON1 in plasma; plasma individual 7): 14.99 nmol/min/mg plasma protein
Scaled Vmax (PON1 in plasma; plasma individual 7): 219543 µmol/h
CE (PON1 in plasma; plasma individual 8): 7.3 ml/min/ml plasma
Scaled CE (PON1 in plasma; plasma individual 8): 1332.3 L/h
Vmax (PON1 in plasma; plasma individual 8): 1663 nmol/min/ml plasma
Vmax (app) (PON1 in plasma; plasma individual 8): 21.31 nmol/min/mg plasma protein
Scaled Vmax (PON1 in plasma; plasma individual 8): 303506 µmol/h
CE (PON1 in plasma; plasma individual 9): 7.6 ml/min/ml plasma
Scaled CE (PON1 in plasma; plasma individual 9): 1391.7 L/h
Vmax (PON1 in plasma; plasma individual 9): 2157 nmol/min/ml plasma
Vmax (app) (PON1 in plasma; plasma individual 9): 27.46 nmol/min/mg plasma protein
Scaled Vmax (PON1 in plasma; plasma individual 9): 393583 µmol/h
CE (PON1 in plasma; plasma individual 10): 9.2 ml/min/ml plasma
Scaled CE (PON1 in plasma; plasma individual 10): 1671.6 L/h
Vmax (PON1 in plasma; plasma individual 10): 2370 nmol/min/ml plasma
Vmax (app) (PON1 in plasma; plasma individual 10): 28.9 nmol/min/mg plasma protein
CE (PON1 in plasma; plasma individual 11): 6.4 ml/min/ml plasma
Scaled CE (PON1 in plasma; plasma individual 11): 1168.7 L/h
Vmax (PON1 in plasma; plasma individual 11): 1314 nmol/min/ml plasma
Vmax (app) (PON1 in plasma; plasma individual 11): 17.42 nmol/min/mg plasma protein
Scaled Vmax (PON1 in plasma; plasma individual 11): 239710 µmol/h
CE (PON1 in plasma; plasma individual 12): 8.2 ml/min/ml plasma
Scaled CE (PON1 in plasma; plasma individual 12): 1500.5 L/h
Vmax (PON1 in plasma; plasma individual 12): 2461 nmol/min/ml plasma
Vmax (app) (PON1 in plasma; plasma individual 12): 26.75 nmol/min/mg plasma protein
Scaled Vmax (PON1 in plasma; plasma individual 12): 449105 µmol/h
CE (PON1 in plasma; plasma individual 13): 6.6 ml/min/ml plasma
Scaled CE (PON1 in plasma; plasma individual 13): 1211.5 L/h
Vmax (PON1 in plasma; plasma individual 13): 1498 nmol/min/ml plasma
Vmax (app) (PON1 in plasma; plasma individual 13): 20.58 nmol/min/mg plasma protein
Scaled Vmax (PON1 in plasma; plasma individual 13): 273437 µmol/h
CE (PON1 in plasma; plasma individual 14): 5.8 ml/min/ml plasma
Scaled CE (PON1 in plasma; plasma individual 14): 1053.7 L/h
Vmax (PON1 in plasma; plasma individual 14): 2064 nmol/min/ml plasma
Vmax (app) (PON1 in plasma; plasma individual 14): 28.36 nmol/min/mg plasma protein
Scaled Vmax (PON1 in plasma; plasma individual 14): 376692 µmol/h
CE (PON1 in plasma; plasma individual 15): 9.8 ml/min/ml plasma
Scaled CE (PON1 in plasma; plasma individual 15): 1793.2 L/h
Vmax (PON1 in plasma; plasma individual 15): 1840 nmol/min/ml plasma
Vmax (app) (PON1 in plasma; plasma individual 15): 24.79 nmol/min/mg plasma protein
Scaled Vmax (PON1 in plasma; plasma individual 15): 335867 µmol/h
CE (PON1 in plasma; plasma individual 16): 3.7 ml/min/ml plasma
Scaled CE (PON1 in plasma; plasma individual 16): 671.6 L/h
Vmax (PON1 in plasma; plasma individual 16): 912 nmol/min/ml plasma
Vmax (app) (PON1 in plasma; plasma individual 16): 11.28 nmol/min/mg plasma protein
Scaled Vmax (PON1 in plasma; plasma individual 16): 166366 µmol/h
CE (PON1 in plasma; plasma individual 17): 8.1 ml/min/ml plasma
Scaled CE (PON1 in plasma; plasma individual 17): 1480.1 L/h
Vmax (PON1 in plasma; plasma individual 17): 2287 nmol/min/ml plasma
Vmax (app) (PON1 in plasma; plasma individual 17): 32.03 nmol/min/mg plasma protein
Scaled Vmax (PON1 in plasma; plasma individual 17): 417377 µmol/h
CE (PON1 in plasma; plasma individual 18): 5.6 ml/min/ml plasma
Scaled CE (PON1 in plasma; plasma individual 18): 1029.2 L/h
Vmax (PON1 in plasma; plasma individual 18): 1132 nmol/min/ml plasma
Vmax (app) (PON1 in plasma; plasma individual 18): 15.18 nmol/min/mg plasma protein
Scaled Vmax (PON1 in plasma; plasma individual 18): 206569 µmol/h
CE (PON1 in plasma; plasma individual 19 (48)): 5.3 ml/min/ml plasma
Scaled CE (PON1 in plasma; plasma individual 19 (48)): 971.2 L/h
Vmax (PON1 in plasma; plasma individual 19 (48)): 1329 nmol/min/ml plasma
Vmax (app) (PON1 in plasma; plasma individual 19 (48)): 18.21 nmol/min/mg plasma protein
Scaled Vmax (PON1 in plasma; plasma individual 19 (48)): 242612 µmol/h
CE (PON1 in plasma; plasma individual 20 (49)): 6.9 ml/min/ml plasma
Scaled CE (PON1 in plasma; plasma individual 20 (49)): 1252.4 L/h
Vmax (PON1 in plasma; plasma individual 20 (49)): 2111 nmol/min/ml plasma
Vmax (app) (PON1 in plasma; plasma individual 20 (49)): 24.85 nmol/min/mg plasma protein
Scaled Vmax (PON1 in plasma; plasma individual 20 (49)): 385226 µmol/h
CE (PON1 in plasma; plasma individual 21 (44)): 6.5 ml/min/ml plasma
Scaled CE (PON1 in plasma; plasma individual 21 (44)): 1181.9 L/h
Vmax (PON1 in plasma; plasma individual 21 (44)): 1835 nmol/min/ml plasma
Vmax (app) (PON1 in plasma; plasma individual 21 (44)): 23.05 nmol/min/mg plasma protein
Scaled Vmax (PON1 in plasma; plasma individual 21 (44)): 334943 µmol/h
CE (PON1 in plasma; plasma individual 22 (34)): 7.3 ml/min/ml plasma
Scaled CE (PON1 in plasma; plasma individual 22 (34)): 1325.9 L/h
Vmax (PON1 in plasma; plasma individual 22 (34)): 1726 nmol/min/ml plasma
Vmax (app) (PON1 in plasma; plasma individual 22 (34)): 24.05 nmol/min/mg plasma protein
Scaled Vmax (PON1 in plasma; plasma individual 22 (34)): 315041 µmol/h
CE (PON1 in plasma; plasma individual 23 (47)): 5.7 ml/min/ml plasma
Scaled CE (PON1 in plasma; plasma individual 23 (47)): 1044.7 L/h
Vmax (PON1 in plasma; plasma individual 23 (47)): 2141 nmol/min/ml plasma
Vmax (app) (PON1 in plasma; plasma individual 23 (47)): 24.05 nmol/min/mg plasma protein
Scaled Vmax (PON1 in plasma; plasma individual 23 (47)): 390628 µmol/h
CE (PON1 in plasma; plasma individual 24 (28)): 8.7 ml/min/ml plasma
Scaled CE (PON1 in plasma; plasma individual 24 (28)): 1595.0 L/h
Vmax (PON1 in plasma; plasma individual 24 (28)): 2357 nmol/min/ml plasma
Vmax (app) (PON1 in plasma; plasma individual 24 (28)): 28.44 nmol/min/mg plasma protein
Scaled Vmax (PON1 in plasma; plasma individual 24 (28)): 430169 µmol/h
CE (PON1 in plasma; plasma individual 25 (41)): 7.1 ml/min/ml plasma
Scaled CE (PON1 in plasma; plasma individual 25 (41)): 1293.4 L/h
Vmax (PON1 in plasma; plasma individual 25 (41)): 1676 nmol/min/ml plasma
Vmax (app) (PON1 in plasma; plasma individual 25 (41)): 22.13 nmol/min/mg plasma protein
Scaled Vmax (PON1 in plasma; plasma individual 25 (41)): 305884 µmol/h
Vmax (mean) (PON1 in plasma; Pathway 4 (CPO to TCPy in plasma), mean of 25 individual HP samples): 1844 nmol/min/ml plasma and 1844.000^i nmol/min/ml plasma
Km [1]: 628 µM
Vmax [1]: 37.980 ^e nmol/min/mg microsomal protein
